The values below come from ChEMBL document CHEMBL1128648, “The enantioselective synthesis and antiinflammatory activity of novel aryl-sphingolipid PKC inhibitors” (Bioorg Med Chem Lett, 1995).

As usually defined, the IC50 is the midpoint of a concentration-inhibition curve.

The target in one experiment is Protein kinase C (PKC). The experiment can be described thus: Inhibition of Protein kinase C isolated from rat brain.
For experiment [1], the species on record is Mus musculus. The experiment can be described thus: Anti-inflammatory activity on the mice ears using antiinflammatory assay (TPAEE). The format is functional.
For experiment [2], the species on record is Mus musculus. Nature of the experiment: Percent change in punch weights [right ear(received drug) -left ear(received vehicle)] was determined in mice at a dose of 1 mg/ear. It counts as functional.
For another experiment, the species on record is Canis familiaris. Nature of the experiment: Inhibition of PKC-dependent neutrophil superoxide burst in dogs. It counts as functional, Canis lupus familiaris.

`CC(=O)O.CCCCCCCCCCC#Cc1cccc([C@@H](O)[C@@H](N)CO)c1` (stereo in doubt; 11(+)) displayed a half-maximal inhibitory concentration (IC50) at Protein kinase C (PKC) of 19.5 µM.

Turning to `CCCCCCCCCCC#Cc1csc([C@@H](O)[C@@H](N)CO)c1.Cl` (stereo in doubt; 19a), at Protein kinase C (PKC), the IC50 is 23 µM.

In the experiment listed under Mus musculus [1], `CCCCCCCCCCCCC/C=C/[C@@H](O)[C@@H](N)CO` [SPHINGOSINE] returned an ED50 of 0.31 mg ear-1. Also, the Change in the experiment listed under Mus musculus [2] is -74%. The IC50 in the experiment listed under Canis familiaris (Canis lupus familiaris) was 4.2 µM.

With `CC(=O)O.CCCCCCCCCCC#Cc1ccc([C@@H](O)[C@@H](N)CO)s1`, the results for the 50% inhibitory concentration (IC50) on Protein kinase C (PKC) and in the experiment filed under Canis familiaris (Canis lupus familiaris) were 21.3 µM and 1.8 µM, respectively. Further, the Change in the experiment filed under Mus musculus [2] was -81%.

For the compound `CC(=O)O.CCCCCCCCCCC#Cc1cccc([C@@H](O)[C@@H](N)CO)c1` (stereo in doubt; 10 (-)), the IC50 at Protein kinase C (PKC) is 21.8 µM; in the experiment filed under Canis familiaris, 2.2 µM. In the experiment filed under Mus musculus [2], the Change was -74%.

As for `CCCCCCCCCCC#Cc1csc([C@@H](O)[C@@H](N)CO)c1.Cl` (stereo in doubt; 3a (+/-)), the IC50 against Protein kinase C (PKC) stood at 28.8 µM. The ED50 in the experiment listed under Mus musculus [1] is reported as 0.23 mg ear-1. Also, in the experiment filed under Mus musculus [2], the Change was -81%.

Turning to `CCCCCCCCCCC#Cc1csc([C@@H](O)[C@@H](N)CO)c1.O=C(O)CCC(=O)O` (stereo in doubt; 18 (-)), the IC50 came to 20.1 µM on Protein kinase C (PKC) and 1.3 µM in the experiment filed under Canis familiaris (Canis lupus familiaris). The Change in the experiment filed under Mus musculus [2] is -73%.

Turning to `CCCCCCCCCCC#Cc1csc([C@@H](O)[C@@H](N)CO)c1.O=C(O)CCC(=O)O` (stereo in doubt; 19 (+)), the IC50 against Protein kinase C (PKC) is 23 µM; in the experiment listed under Canis familiaris it was 1 µM. Also, the Change in the experiment listed under Mus musculus [2] is -63%.

In the experiment listed under Mus musculus [1], `CC(=O)O.CCCCCCCCCCC#Cc1ccc([C@@H](O)[C@@H](N)CO)s1` (racemic) yielded an ED50 of 0.24 mg ear-1. The same compound had a concentration for half-maximal inhibition (IC50) in the experiment filed under Canis familiaris of 1.5 µM.

The compound `CC(=O)O.CCCCCCCCCCC#Cc1cccc([C@@H](O)[C@@H](N)CO)c1` (racemic) displayed an ED50 in the experiment filed under Mus musculus [1] of 0.34 mg ear-1. Moreover, the Change in the experiment listed under Mus musculus [2] is on record as -82%. Moreover, the IC50 in the experiment listed under Canis familiaris (Canis lupus familiaris) was 2.4 µM.

`CCCCCCCCCCC#Cc1csc([C@@H](O)[C@@H](N)CO)c1.Cl` (stereo in doubt; 18a) gave a concentration for half-maximal inhibition (IC50) against Protein kinase C (PKC) of 20.1 µM.

As for `CCCCCCCCCCC#Cc1csc([C@@H](O)[C@@H](N)CO)c1` (racemic), the concentration for half-maximal inhibition (IC50) in the experiment listed under Canis familiaris was determined as 1.5 µM.
